From PMC9230136 (Pharmaceutics, 2022)
“Also recorded” adds a separate entry of the source.

Tested on: HeLa cells in zebrafish Tg(fli1: EGFP) embryos
Experiment: Zebrafish xenograft model with HeLa cells
Type: in vivo, Danio rerio
Details: 145 or 290 nM, 24 h, 34 °C; p 0.04 and 0.01
Method: For the transplantation, zebrafish Tg(fli1: EGFP) embryos expressing enhanced green fluorescent protein (EGFP) specifically in vascular endothelial cells, were kept at 28 °C and manually dechorionated. Before microinjections into zebrafish embryos, HeLa cancer cells were stained with VybrantTM DiI Cell-Labeling Solution (Invitrogen, ThermoFisher, Carlsbad, CA, USA) according to the manufacturer’s protocol, in order to visualize and track them inside the larvae. Stained cells (1.0 × 10^6 cells) were suspended in 20 μL of PBS 1X obtaining a final concentration of 50 cells/nL; next, the cellular suspension was loaded into borosilicate glass capillary needles (OD/ID: 1.00/0.75 mm, World Precision Instruments, Sarasota, FL, USA). […]
Initially (time 0 h pre-treatment) and after one day post-treatment, the tumors were photographed with a Zeiss AxioObserver microscope for live-cell imaging. HeLa cell fluorescence was recorded to investigate reduction, death and migration of tumor cells. Using Fiji ImageJ software, the reduction in cancer cell fluorescence, related to the effectiveness of the anticancer drug treatments, was calculated and plotted. The fluorescence of at least 20 identically treated embryos was compared to vehicle control set to 100%.

Structure (SMILES): Cc1cc(Nc2ccc(F)cc2)n2nc(NCCCc3ccccc3)nc2n1 [Compound 8q]
- HeLa tumor cells / fluorescence in zebrafish xenograft: significantly inhibited HeLa cell growth in zebrafish embryos; also recorded: number of circulating tumor cells was significantly reduced; also recorded: fluorescence intensity decreased in a dose-dependent manner; also recorded: reduced HeLa cell growth in xenografts implanted in zebrafish embryos
